The source of these data is patent publication US20210187014A1 (The Regents of the University of Colorado, a body corporate, priority 2018, published 2021).

Square brackets hold non-standard residues; d marks the D form. Peptide text beside a SMILES is read from it. Orn(N5-OH,N5-Ac) = CC(=O)N(O)CCC[C@H](N)C(=O)O

Data set [1] has as its system C. elegans. The data set can be described thus: C. elegans larval growth assay: heat-killed E. coli plus trace live E. coli, worm volume. The data set is classed as in vivo. To be noted: for worm growth with dietary supplementation: worms fed heat-killed E. coli plus live entA- or entF- mutant E. coli (Ent-deficient food). The source says:
In one embodiment of the inventive technology, the present inventors created a unique assay to facilitate the identification of microbial metabolites that benefit growth and development of host animals. […] This unique feeding condition was used to search for E. coli mutants that fail to support normal worm growth, potentially due to their inability to provide specific metabolites to benefit host animals.
E. coli Keio collection screen. Preparation of heat-killed (HK) OP50 plates followed the procedure described previously (Qi et al., 2017). Standard overnight culture of E. coli OP50 grown in LB broth was concentrated to 1/10 vol and was then heat-killed in a 75° C. water bath for 90 min. The 150 µl of the HK-OP50 was spread onto one side of NGM plate. For preparation of bacterial mutant assay plates, E. coli Keio (Baba et al., 2006) mutants were grown overnight at 37° C. in LB medium with […] kanamycin. 0.2 uL of the bacterial culture (OD600) were seeded to the other side of HK OP50 plate. About 300 synchronized L1 worms were added to the screen plate, and cultured at 20° C., then scored for worm size at day 3 and day 4. The entire library was used for the primary screen; each bacterial mutant was screened once. For the secondary screen, 200 candidate mutants were screened (3 replicates) to confirm the slow growth phenotype.
Chemical supplementation of culture plates. For chemical supplementation, each chemical was dissolved in water or DMSO to generate a stock. The stock solution was added to HK OP50 and then spotted onto NGM plates. […] For CaEDTA supplementation (Kiang et al., 2014), 50 ul of CaEDTA (50 ug/ul) was spread onto the center of the NGM plates seeded with OP50, then different volume of the FeCl3[175 ug/ul] […] Bacterial growth analyses. Overnight cultures were diluted to a final OD600=0.01 in 200 μL of NGM liquid medium. Bacteria were grown in 96-well plates with shaking in a Synergy2 plate reader (BioTek) at 37° C. for 17 h. The OD600 was recorded at 20 min intervals.
Analysis of larval growth by measuring worm size. Synchronized L1 worms were seeded on the indicated NGM plate and grew to the indicated times. Photos were taken and worms volume in each photo were measured by WormSizer software (Moore et al., 2013).

A short description of data set [2]: Stability by NGAL fluorescence assay. In kind it is physicochemical. The following applies: same concentration and buffers, room temp, light. An excerpt:
FIG. 25. […] Degradation is indicated by increased absorbance. […] Degradation is indicated by increased relative fluorescence. […] For all tests, dilutions were kept at room temp and exposed to light. Error is standard deviation of the mean.

Data set [3] deals with C. elegans smf-3/DMT1 mutant. The data set can be described thus: Growth of iron-deficient C. elegans smf-3/DMT1(-) mutant with iron chelator 2,2'-bipyridyl. The data set is classed as in vivo. The procedure: FIG. 26. […] All tests were done on a smf-3/DMT1(-) mutant strain in a culture media where an iron chelator (2,2′-bipyridyl) was added to reduce the environmental iron level (FIG. 26A). […] This growth delay was rescued by supplementation with Ent, scored as the percentage of the population at the indicated growth stage. […] The entP,fepA: E. coli mutant cannot synthesize or utilize Enterobactin.
SMF-3/DMT1 is a conserved divalent metal transporter that transports iron into intestinal cells. The smf-3/DMT1 mutant has been established as an iron deficiency model in C. elegans. These mutants have defective iron uptake that results in iron deficiency (Romney et al 2011) and delayed growth under iron-poor growth conditions created by addition of an iron chelator (2,2′-bipyridyl) to the culture media (Raj an et al 2019).
To determine if the Enterobactin supplementation was benefiting the worm directly or benefiting the worm through an E. coli-dependent mechanism, the test was repeated using an E. coli double mutant that cannot synthesize or utilize Ent (entP,fepk).

A further data set has as its system MEL cells. The data set can be described thus: Erythroid differentiation of MEL cells (color change of cell pellets). In kind it is cell-based, murine. The following applies: equimolar supplementation. Here is the method:
FIG. 27. Ferric Enterobactin supplementation benefits differentiation of erythroid progenitor cells (MEL) to red blood cells. (FIG. 27A) MEL cells were grown with the indicated treatments. Cell pellets are shown. (FIG. 27B) Quantification of MEL color change presented as the average intensity of each cell pellet, normalized to the intensity of the control. Error bars are the standard deviation of three technical replicates.
MEL cells are murine erythroid progenitor cells that are arrested at the proerythroblast stage. In the laboratory, these cells are induced to undergo erythroid differentiation to red blood cells by addition of various chemicals (e.g. 2% DMSO) (Friend, 1971). Erythroid differentiation is an iron-dependent process that results in a color change in the differentiated cells. The present inventors tested if addition of Fe-Ent would positively impact the differentiation of wild-type MEL cells to red blood cells.

Data set [4] concerns C. elegans. The data set can be described thus: Iron level in live worms by calcein-AM staining (and pftn-2::GFP reporter). The data set is classed as in vivo.
Description: The present inventors employed the commonly used fluorescent cell-permeable dye, calcein AM, of which emission is quenched by iron binding, and applied it to live worms as previously described to estimate the overall iron level in the host.
Live imaging of iron in worms was done as previously described (James et al., 2015). Briefly, worms were collected at different culture conditions, then co-cultured in M9 with 0.05 ug/ML calcein-AM (Invitrogen) for 1 h, then washed 3 times in 1 ml M9. Samples were then mounted for fluorescence microscopy.
For calcein-AM staining, the original images taken with GFP channel were used to measure the intensity. The value of staining intensity was determined by subtracting the background intensity from the calcein-AM stained intestine.
Data set [5] concerns C. elegans. The data set can be described thus: Siderophore toxicity test: worm growth and mitochondrial morphology (mtGFP). In kind it is in vivo. The following applies: for defects in growth or mitochondrial morphology: solid medium, worms fed wild-type E. coli. An excerpt: FIG. 8. Bacterial enterobactin promotes C. elegans development. […] (8E) The entA- and entF-mutant E. coli strains colonized the host gut as efficiently as the parental wild-type strain. (FIG. 8F) Cartoon diagram of feeding condition, microscope images and bar graph showing that neither pyoverdine nor ferrichrome caused obvious growth defects in worms fed heat-killed food plus wild-type, live E. coli. (FIG. 8G) Fluorescence microscopy of worms containing mtGFP under the same feeding condition as in (FIG. 8F). […] “n” =number of worms scored. Data are represented as mean±SEM. ***P<0.0001.

Consider `O=C(O)c1cccc(O)c1O` [2,3-DHBA, 2,3-dihydroxybenzoic acid], for which the “worm growth with dietary supplementation” value in the data set on C. elegans [1] is listed as “rescued worm growth on entA- but not entF-E. coli”.
For the compound `O=C(N[C@H]1COC(=O)[C@@H](NC(=O)c2cccc([O-])c2[O-])COC(=O)[C@@H](NC(=O)c2cccc([O-])c2[O-])COC1=O)c1cccc([O-])c1[O-].[Fe+3]` [Fe-Ent, ferric enterobactin], in data set [2], the “stability of Ent versus Fe-Ent” value was “more stable than Ent alone”. The “growth of smf-3(-) mutants” value is “independent of E. coli” in data set [3] (E. coli double mutant that cannot synthesize or utilize Ent); “faster and to a greater extent than observed for Enterobactin or FeCl3 supplementation alone” in data set [3] (iron chelator 2,2'-bipyridyl in media). Further, the “MEL differentiation to red blood cells” value in the data set with MEL cells was “increase in MEL differentiation, and this increase was better than supplementation with equimolar FeCl3 alone”.
Take `[Cl][Fe]([Cl])[Cl]` [FeCl3, ferric chloride, reference compound]: the cellular iron level result with C. elegans [4] (animals fed Ent-deficient food) is given as “nor raised cellular iron level”. In the data set on C. elegans [4] (iron-deficient condition, worms treated with CaEDTA), the “iron level and growth rate defects” value is recorded as “both defects were suppressed”. Further, the worm growth result in the data set on C. elegans [1] (ferric chloride added to live wild-type E. coli, with heat-killed E. coli) was “worm growth defect”. Moreover, the “worm growth with dietary supplementation” value with C. elegans [1] is recorded as “neither suppressed the growth defect”.
Turning to `CC(=O)N([O-])CCC[C@@H]1NC(=O)CNC(=O)CNC(=O)CNC(=O)[C@H](CCCN([O-])C(C)=O)NC(=O)[C@H](CCCN([O-])C(C)=O)NC1=O.[Fe+3]` [ferrichrome] (cyclo(GGG[Orn(N5-OH,N5-Ac)][Orn(N5-OH,N5-Ac)][Orn(N5-OH,N5-Ac)])), in the data set on C. elegans [1], the “worm growth with dietary supplementation” value is “failed to generate a similar impact on worm growth”. For the same compound, the “defects in growth or mitochondrial morphology” value with C. elegans [5] is listed as “no obvious defects”.
For hemin, the “worm growth with dietary supplementation” value with C. elegans [1] is “did not impact animal growth”.
Turning to pyoverdine, the “worm growth with dietary supplementation” value in the data set on C. elegans [1] is listed as “failed to generate a similar impact on worm growth”. Moreover, the “mitochondrial morphology (mtGFP)” value with C. elegans [5] (liquid culture) is “toxic to worms as it damages host mitochondria”. Further, the “defects in growth or mitochondrial morphology” value in the data set on C. elegans [5] is “no obvious defects”.
